Experimental data from US20220323761A1, “METHOD FOR INDUCING HIBERNATION-LIKE STATE AND DEVICE SAME” (University of Tsukuba, priority 2019, published 2022).

Key:
hM3Dq in Q-neurons = molecular target: T1, hM3Dq in Q-neurons (Homo sapiens, UniProt P20309, A239G/Y149C); test: Body temperature, respiratory gas, ECG, EEG, respiration and serum analysis of Q-hM3D mice after IP CNO (QIH); assay type: in vivo
T1 construct: mCherry (C); expressed in transfected cells; host or cells: QRFP-producing (Q) neurons of Qrfp-iCre mice transduced in vivo with AAV10-EF1α-DIO-hM3Dq-mCherry
T1 sequence (P20309 whole entry Y149C/A239G, the tested form may be a part): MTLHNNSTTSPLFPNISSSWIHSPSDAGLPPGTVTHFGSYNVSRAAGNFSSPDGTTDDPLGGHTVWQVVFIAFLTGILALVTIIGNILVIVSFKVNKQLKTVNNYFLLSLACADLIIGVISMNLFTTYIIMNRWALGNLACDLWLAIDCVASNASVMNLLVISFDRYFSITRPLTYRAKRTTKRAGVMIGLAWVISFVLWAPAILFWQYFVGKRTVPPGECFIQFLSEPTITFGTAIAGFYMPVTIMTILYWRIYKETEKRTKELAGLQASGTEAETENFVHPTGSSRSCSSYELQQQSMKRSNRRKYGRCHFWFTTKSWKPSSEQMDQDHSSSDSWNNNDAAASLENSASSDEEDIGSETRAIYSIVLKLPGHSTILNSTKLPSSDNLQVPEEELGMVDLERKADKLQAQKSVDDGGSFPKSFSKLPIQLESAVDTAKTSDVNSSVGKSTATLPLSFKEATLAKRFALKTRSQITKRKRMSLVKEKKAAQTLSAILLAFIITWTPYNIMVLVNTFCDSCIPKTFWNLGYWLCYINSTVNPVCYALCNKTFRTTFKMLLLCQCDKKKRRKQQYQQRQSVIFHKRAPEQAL
Description: In order to record the core body temperature, oxygen consumption amount, EEG, ECG, and respiratory patterns, each animal was housed in a temperature controlled chamber (HC-100, Shin Factory or LP-400P-AR, Nippon Medical & Chemical Instruments Co., Ltd.). In order to continuously record the TB (intraperitoneal temperature), a telemetry temperature sensor (TA11TA-F10, DSI) was implanted into the animal's abdominal cavity under general inhalation anesthesia at least 7 days prior to the recording. The VO 2 and carbon dioxide discharge rate (VCO2) of the animal were continuously recorded using a respiratory gas analyzer (ARCO-2000 mass spectrometer, ARCO System). The respiratory quotient was calculated from the ratio of VCO2/VO2.
The EEG and ECG were recorded using a implanted remote measurement transmitter (F20-EET or HD-X02, DSI). For EEG recording, two stainless steel screws (1 mm in diameter) were soldered to a wire of a telemetry transmitter and inserted under general anesthesia through the skull of the cortex (AP, 1.00 mm; right, 1.50 mm from bregma or lambda). Two other wires from the transmitter were placed on the surface of the thoractic cavity, and an ECG was recorded. The mice were allowed to recover from surgery for at least 10 days. An EEG/ECG data collecting system consisted of transmitters, an analog-digital converter and a recording computer with the software Ponemah Physiology Platform (version 6.30, DSI). The sampling rate was 500 Hz for both the EEG and the ECG, and the data was converted into ASCII format for review. The heart rate was evaluated through a visual inspection of the waveform.
The respiratory flow was recorded using a non-invasive respiratory flow recording system^35. Specifically, a mouse was placed in metabolic chamber (TMC-1213-PMMA, Minamiderika Shokai) having an air flow of at least 0.3 L/min. The chamber was connected to a pressure sensor (PMD-8203-3G, Biotex), and the pressure difference between the outside and inside of the chamber was detected. If the animal is breathing, the pressure difference from the outside to the inside increases during inhalation and decreases during exhalation^35. An analog signal output from the sensor was converted to a digital signal by an AD converter (NI-9205, National Instruments) at 250 Hz, and stored in a computer using data logging software developed by Biotex Inc.
The Dreadd agonist CNO (clozapine N-oxide, Abcam, ab141704) was dissolved in physiological saline at a dose of 100 μg/mL, and the solution was frozen at −20° C. The CNO solution was thawed on site and then administered to each mouse intraperitoneally at a dose of 1 mg/kg. The adenosineAl receptor agonist CHA (N^6-cyclohexyl adenosine, Sigma-Aldrich, C9901) was dissolved in physiological saline at a concentration of 250 μg/mL, and the solution was administered intraperitoneally to each mouse at a dose of 2.5 mg/kg.
Blood was collected from the mice under anesthesia through a left ventricular puncture using a 25 gauge needle. The collected blood was stored on ice for less than 2 hours. The sample was centrifuged at 2000 G for 10 minutes at 4° C., and the supernatant was collected and frozen at −30° C. The frozen serum specimens were sent to FUJIFILM Wako Pure Chemical Corporation, and the concentrations of Na (mEq/L), K (mEq/L), Cl (mEq/L), AST (IU/L), ALT (IU/L) LDH (IU/L), CK (IU/L), GLU (mg/dL), and total ketone bodies (μmol/L) were measured.

[1] = test system: Q-neurons in the AVPe, MPA and Pe; test: Fos immunostaining of brain sections of Q-hM3D mice after CNO IP; assay type: in vivo; conditions: 90 minutes after CNO IP
Experimental: Each mouse was deeply anesthetized with isoflurane, transcardially perfused with 10% sucrose in water, and then perfused with ice-cooled 4% paraformaldehyde (4% PFA) in a 0.1 M phosphate buffer having a pH of 7.4, and the brain was removed. After being left in the 4% PFA overnight at 4° C., the brain was fixed, incubated overnight at 4° C. in a 0.1 M phosphate buffered saline (PBS) having a pH of 7.4, in 30% sucrose, immersed in a Tissuue-Tek O.C.T. compound (Sakura) in a cryomold, and frozen at −80° C. until sectioned. With the use of a cryostat (CM1860, Leica), the brain was sliced into coronal sections in four equal series every 50 μm, collected in a 6-well plate filled with ice-cooled PBS, and washed three times with PBS at room temperature (RT). Unless otherwise specified, the following incubation process was carried out while gently shaking on an orbital shaker. […]
The primary antibodies used in this research were rabbit anti-cFos (1:4000, ABE457, Millipore), goat anti-mCherry (1:15000, AB0040-200, SICGEN), rat anti-GFP (1:5000, 04404-84, NACALAI TESQUE), mouse anti-TH (1:1000, sc-25269, Santa Cruz Biotechnology), mouse anti-orexin A (1:200, sc-80263, Santa Cruz Biotechnology), and rabbit anti-MCH (1:2000, M8440, SIGMA). […] Brain regions were determined using a mouse brain map from Paxinos and Franklin^36.

Structure (SMILES): C[N+]1([O-])CCN(C2=Nc3cc(Cl)ccc3Nc3ccccc32)CC1 [CNO, clozapine N-oxide]
- duration of extremely low TB state (below 30° C.) (hM3Dq in Q-neurons; IP injection, Q-hM3D mice): ≥ 48 h
- hypothermia compared with Qrfp-iCre; Rosa26^dreaddm3 mice (hM3Dq in Q-neurons; IP injection, Q-hM3D mice): deeper, longer sustained hypothermia
- QIH after repeated injections in the same mice (hM3Dq in Q-neurons; Q-hM3D mice): reproducible
- condition of mice after recovery from QIH (hM3Dq in Q-neurons; Q-hM3D mice): healthy
- electroencephalogram (EEG) in QIH (hM3Dq in Q-neurons; Q-hM3D mice): very low amplitude
- induction of QIH (hM3Dq in Q-neurons; Q-hM3D mice): effectively induces QIH
- tail temperature (hM3Dq in Q-neurons; Q-hM3D mice, 0.5 hours after IP CNO): increases
- O2 consumption rate (VO2) change (hM3Dq in Q-neurons; Q-hM3D mice, CNO-induced hypothermic state): significant reduction
- TB change after administration (hM3Dq in Q-neurons; Q-hM3D mice, concurrently with Ts): decreases
- duration of QIH with TB of less than 30° C. (hM3Dq in Q-neurons; TA=20° C., one dose 1 mg/kg): ≥ 48 h
- time for VO2 to fully return to normal (hM3Dq in Q-neurons; TA=20° C., one dose 1 mg/kg): about 1 week
- posture during QIH (hM3Dq in Q-neurons; TA=28° C., Q-hM3D mice, n=4): extended posture
- blood glucose levels in QIH (hM3Dq in Q-neurons; blood serum chemical data): reduced
- effect of CNO on TB with TeTxLC co-expressed in Q-neurons (hM3Dq in Q-neurons; simultaneous infusion of AAV2/9-hSyn-DIO-TeTxLC-eYFP and AAV10-EF1α-DIO-hM3Dq-mCherry): completely eliminated
- heart rate (hM3Dq in Q-neurons; two hours after CNO injection, average of n=3, 758 two hours prior): 215 beats/min
- VO2 (hM3Dq in Q-neurons; two hours after CNO injection, 3.60 prior): 1.17 mL/g/h
- respiratory rate (hM3Dq in Q-neurons; two hours after CNO injection, 333 prior): undetectable
- in vivo excitation of neurons (mCherry and Fos double positive) [1]: confirmed
